Measured values from PMC9354042, “Discovery of BRAF/HDAC Dual Inhibitors Suppressing Proliferation of Human Colorectal Cancer Cells” (Frontiers in Chemistry, 2022).

Tests used:
BRAF^V600E = target: T1, BRAF^V600E (Homo sapiens, UniProt P15056, V600E); test: BRAF V600E enzymatic activity, FRET-based Z'-Lyte kinase assay; type: biochemical
T1 construct: purchased Invitrogen
Procedure: The experiments were performed according to the instructions of the manufacturer. […] For each assay, 10 μl kinase reactions were added to 384-well plate, mixed thoroughly, and incubated for 1 hour at room temperature. Then, a 5 μl development solution was added to each well and the plate was incubated for another 1 h at room temperature. Then, a 5 μl stop reagent was loaded to stop the reaction. For the control setting, a 5 μl phospho-peptide solution instead of kinase/peptide mixture was used as 100% phosphorylation control. […] The plate was measured on an EnVision Multilabel Reader (Perkin-Elmer). Curve fitting and data presentations were performed using GraphPad Prism, version 5.0. Every experiment was repeated at least two times.

HDAC8 = target: T2, HDAC8 (Homo sapiens, UniProt Q9BY41); test: HDAC8 fluorescent-based enzymatic activity assay; type: biochemical; settings: Table 3 isoform panel; read-out: Enzyme inhibition HDAC8 (Class I)
T2 construct: purchased BPS Bioscience
T2 sequence (Q9BY41 1-377): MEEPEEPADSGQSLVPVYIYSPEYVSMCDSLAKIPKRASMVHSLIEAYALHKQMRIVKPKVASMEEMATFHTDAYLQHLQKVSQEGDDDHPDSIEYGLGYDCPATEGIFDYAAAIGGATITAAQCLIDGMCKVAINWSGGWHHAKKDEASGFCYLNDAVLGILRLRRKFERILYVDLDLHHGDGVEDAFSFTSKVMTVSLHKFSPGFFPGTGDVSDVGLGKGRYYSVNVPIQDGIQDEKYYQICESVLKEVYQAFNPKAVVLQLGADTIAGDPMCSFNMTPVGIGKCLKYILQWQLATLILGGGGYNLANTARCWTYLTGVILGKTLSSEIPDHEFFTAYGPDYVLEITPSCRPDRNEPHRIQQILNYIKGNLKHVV
Procedure: The purified recombinant Human HDACs and their corresponding substrates were purchased from BPS Bioscience (BPS Bioscience Inc., United States). The assays were carried out in a 384-well format using the BPS fluorescent–based HDAC activity assay according to the manufacturer’s protocol. In brief, […] of the HDAC reaction mixture was composed of HDAC assay buffer, […] BSA, serial diluted test compounds, appropriate concentration of HDACs, and […] fluorogenic substrate, the mixture was incubated at 37°C for 60 min, and then stopped by the addition of developer containing trypsin and TSA. After 20 min of incubation, the fluorescence was detected at the excitation wavelength of 360 nm and the emission wavelength of 460 nm using the EnVision Multilabel Reader (PerkinElmer Inc., United States). The analytical software, GraphPad Prism 5.0 (GraphPad Software, Inc., United States) was used to generate IC50 value via non-linear regression analysis.

T1 sequence (P15056 whole entry V600E): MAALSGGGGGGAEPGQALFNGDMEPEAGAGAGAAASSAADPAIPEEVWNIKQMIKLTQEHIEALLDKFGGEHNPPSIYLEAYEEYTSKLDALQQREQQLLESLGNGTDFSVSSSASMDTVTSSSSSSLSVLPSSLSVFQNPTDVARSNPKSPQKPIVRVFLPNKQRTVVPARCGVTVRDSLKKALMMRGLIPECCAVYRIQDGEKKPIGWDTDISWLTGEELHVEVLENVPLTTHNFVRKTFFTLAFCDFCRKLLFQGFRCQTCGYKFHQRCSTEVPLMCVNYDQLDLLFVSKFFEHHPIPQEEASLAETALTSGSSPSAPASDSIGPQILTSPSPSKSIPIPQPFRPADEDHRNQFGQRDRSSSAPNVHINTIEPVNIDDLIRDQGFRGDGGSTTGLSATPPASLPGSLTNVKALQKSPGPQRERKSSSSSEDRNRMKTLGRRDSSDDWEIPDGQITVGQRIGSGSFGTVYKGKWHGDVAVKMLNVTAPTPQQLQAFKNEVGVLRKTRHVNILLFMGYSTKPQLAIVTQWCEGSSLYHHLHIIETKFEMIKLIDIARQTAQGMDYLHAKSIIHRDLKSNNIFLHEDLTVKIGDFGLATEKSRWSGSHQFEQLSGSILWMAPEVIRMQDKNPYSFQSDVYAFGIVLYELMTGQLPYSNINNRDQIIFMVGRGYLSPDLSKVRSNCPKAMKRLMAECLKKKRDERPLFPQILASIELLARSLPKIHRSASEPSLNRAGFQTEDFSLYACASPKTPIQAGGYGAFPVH

Q: What does the source list for `CC(C)(C)c1nc(-c2cccc(NS(=O)(=O)c3c(F)cccc3F)c2F)c(-c2ccnc(NCCCCCCC(=O)NO)n2)s1` [14b, 7-{[4-(2-(Tert-Butyl)-4-(3-((2,6-Difluorophenyl)Sulfonamido)-2-Fluorophenyl)Thiazol-5-yl)Pyrimidin-2-yl]Amino}-N-Hydroxyheptanamide]?
A: IC50 (BRAF^V600E): 1.71 nM; IC50 (HDAC8): 3000 nM
